Reference: ChEMBL document CHEMBL1201862, “PubChem BioAssay data set” (2004)
Activity calls are given as the source filed them.

What was measured:
[1] = target: Eukaryotic translation initiation factor 4H (Homo sapiens, UniProt Q15056); assay: inhibitors of translation initiation factor eIF4H – SAR follow-up (AID 435011); assay type: functional
[2] = target: Polyadenylate-binding protein 1 (Homo sapiens, UniProt P11940); assay: PABP inhibition in translation initiation, SAR follow-up (AID 435018); assay type: functional
[3] = target: Envelope glycoprotein gp160 (Human immunodeficiency virus 1, UniProt Q6QLK5); assay: cell-free HIV fusion peptide-binding blockers – biochemical, uHTS, fluorescence dequenching, […] (AID 1986)
[4] = Luminescence Cell-Based Dose Retest to Confirm Inhibitors of Cancer Stem Cells. [Related pubchem assays (depositor defined):AID2717, AID2721]; assay type: functional; conditions: Homo sapiens
[5] = M. tuberculosis H37Rv growth inhibitors, H37Rv strain (AID 1626); assay type: functional
INS1 = assay: INS-1E survival protection against cytokine death – cell-based, luminescence, retest, dose response (AID 449756); assay type: functional; conditions: Rattus norvegicus;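 also: cell death triggered by IL-1 beta plus TNF-alpha plus IFN-gamma mixture; protective hits raise ATP signal compared with cytokine alone wells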
[6] = target: Glutathione-S-transferase (Schistosoma japonicum, UniProt Q26513); assay: GST-antibody interaction or FRET quenching – biochemical, TR-FRET, artefact control for Vif-APOBEC3G degradation inhibitor project, dose response (AID 1117362); assay type: functional
ORF 73 = ORF 73 (Human herpesvirus 8, UniProt O40947); assay: KSHV LANA DNA-binding disruption – biochemical, fluorescence polarization, cherry-picked samples, dose response (AID 504725); set-up: species or system Human gammaherpesvirus 8;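 also: fluorescence polarization of a labeled DNA duplex reporting LANA DNA binding; potency is for inhibitors that block LANA binding to the DNA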
Paired box protein Pax-8 = Paired box protein Pax-8 (Homo sapiens, UniProt Q06710); assay: PAX8 transcriptional activity inhibition in RMG-I – RMG-I cells, luciferase, cherry-pick, dose response (AID 687027); assay type: functional, cell-based;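 also: luciferase reporter driven by Pax8 target thyroperoxidase promoter measured by SteadyGlo luminescence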
HEK293 [7] = assay: optical interference in Abeta FP readout, dose response, artefact control for IDE activator project, biochemical, fluorescence polarization (AID 588442); assay type: functional, cell-based; conditions: Homo sapiens
[8] = viability loss in THP-1 monocytes – THP-1 cells, cytotoxicity control for Vif-APOBEC3G degradation inhibitor project, dose response (AID 1117359); assay type: functional; conditions: THP-1
Insulin-degrading enzyme [9] = target: T1, Insulin-degrading enzyme (Homo sapiens, UniProt P14735); assay: recombinant IDE activation, cell-free – biochemical, fluorescence polarization, counter-screen for IDE activator project, dose response (AID 588681)
T1 sequence (P14735 whole entry): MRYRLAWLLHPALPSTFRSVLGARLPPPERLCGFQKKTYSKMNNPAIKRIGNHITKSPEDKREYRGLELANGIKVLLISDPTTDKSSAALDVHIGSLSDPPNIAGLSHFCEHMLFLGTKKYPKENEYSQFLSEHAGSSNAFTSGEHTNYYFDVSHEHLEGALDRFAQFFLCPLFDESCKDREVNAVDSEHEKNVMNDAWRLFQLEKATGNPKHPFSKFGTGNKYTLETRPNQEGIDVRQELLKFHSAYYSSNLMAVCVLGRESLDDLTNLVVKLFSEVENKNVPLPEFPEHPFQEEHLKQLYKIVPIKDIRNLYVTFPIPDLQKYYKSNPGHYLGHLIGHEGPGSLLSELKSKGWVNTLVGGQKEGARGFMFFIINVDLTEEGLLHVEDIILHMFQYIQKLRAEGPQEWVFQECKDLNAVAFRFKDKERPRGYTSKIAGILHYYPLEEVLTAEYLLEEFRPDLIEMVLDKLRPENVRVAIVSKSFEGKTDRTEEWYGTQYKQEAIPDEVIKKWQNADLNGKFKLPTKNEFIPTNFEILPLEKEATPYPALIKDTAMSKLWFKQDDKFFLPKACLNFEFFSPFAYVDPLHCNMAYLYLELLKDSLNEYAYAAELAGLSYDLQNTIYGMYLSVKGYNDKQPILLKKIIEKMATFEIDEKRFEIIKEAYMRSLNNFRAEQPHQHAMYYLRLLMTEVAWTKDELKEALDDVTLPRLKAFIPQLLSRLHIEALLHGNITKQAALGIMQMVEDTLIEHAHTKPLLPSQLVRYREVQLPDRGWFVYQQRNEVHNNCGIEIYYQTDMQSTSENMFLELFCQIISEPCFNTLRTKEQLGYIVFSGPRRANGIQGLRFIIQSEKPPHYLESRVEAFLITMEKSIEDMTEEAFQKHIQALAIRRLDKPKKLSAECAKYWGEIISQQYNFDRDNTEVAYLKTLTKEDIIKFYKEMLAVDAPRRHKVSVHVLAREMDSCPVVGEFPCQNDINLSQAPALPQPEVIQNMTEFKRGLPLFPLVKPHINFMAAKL

HeLa = assay: viability loss in HeLa cells – cell-based, 24 h, cherry-picked samples, cytotoxicity control, dose response (AID 504726); assay type: functional; conditions: Homo sapiens;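 also: potency for cytotoxicity as loss of luminescence signal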
HEK293 [10] = assay: membrane integrity loss in HEK cells – cell-based, fluorescence, cytotoxicity control for IDE activator project, dose response (AID 588440); assay type: functional; conditions: Homo sapiens;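 also: cytotoxicity by LDH release measuring loss of membrane integrity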
[11] = target: Cystic fibrosis transmembrane conductance regulator/Golgi-associated PDZ and coiled-coil motif-containing protein (Homo sapiens, UniProt P13569+Q9HD26); assay: potency against CAL PDZ-peptide interaction – biochemical, fluorescence polarization, Cerulean-tagged CAL PDZ, cherry-picks, dose response (AID 504773)
Insulin-degrading enzyme [12] = target: T1, Insulin-degrading enzyme; assay: cellular IDE activation of Abeta substrate cleavage – fluorescence polarization, HEK cells, dose response (AID 588439); assay type: functional, cell-based
[13] = target: Intestinal-type alkaline phosphatase (Homo sapiens, UniProt P09923); assay: Dose Response confirmation of uHTS hits from a small molecule inhibitors of human intestinal alkaline phosphatase via a luminescent assay. [Related pubchem assays (depositor defined):AID2544, AID2574]; assay type: functional
[14] = target: T2, Dual specificity protein phosphatase 6 (Rattus norvegicus, UniProt Q64346); assay type: functional
T2 sequence (Q64346 whole entry): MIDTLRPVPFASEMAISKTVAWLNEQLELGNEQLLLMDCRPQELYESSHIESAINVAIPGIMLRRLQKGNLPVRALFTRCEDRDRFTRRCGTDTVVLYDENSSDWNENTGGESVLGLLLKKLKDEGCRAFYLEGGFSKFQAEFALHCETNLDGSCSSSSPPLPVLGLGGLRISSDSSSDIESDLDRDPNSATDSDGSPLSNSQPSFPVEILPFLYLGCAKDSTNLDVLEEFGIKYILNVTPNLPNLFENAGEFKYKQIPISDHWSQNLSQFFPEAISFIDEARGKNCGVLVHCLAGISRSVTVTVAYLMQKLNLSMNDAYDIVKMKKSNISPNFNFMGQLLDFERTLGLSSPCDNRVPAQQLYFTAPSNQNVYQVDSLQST

[15] = target: Glyceraldehyde-3-phosphate dehydrogenase (Homo sapiens, UniProt P04406)
[16] = target: T3, Dual specificity protein phosphatase 3 (Homo sapiens, UniProt P51452); assay: MOA VHR1 Fluorescent secondary assay for identification of redox-state modulating compounds. [Related pubchem assays (depositor defined):AID1654, AID1661, AID1878, AID1957]
[17] = target: T4, Tyrosine-protein phosphatase non-receptor type 7 (Homo sapiens, UniProt P35236); assay type: functional
T4 sequence (P35236 whole entry): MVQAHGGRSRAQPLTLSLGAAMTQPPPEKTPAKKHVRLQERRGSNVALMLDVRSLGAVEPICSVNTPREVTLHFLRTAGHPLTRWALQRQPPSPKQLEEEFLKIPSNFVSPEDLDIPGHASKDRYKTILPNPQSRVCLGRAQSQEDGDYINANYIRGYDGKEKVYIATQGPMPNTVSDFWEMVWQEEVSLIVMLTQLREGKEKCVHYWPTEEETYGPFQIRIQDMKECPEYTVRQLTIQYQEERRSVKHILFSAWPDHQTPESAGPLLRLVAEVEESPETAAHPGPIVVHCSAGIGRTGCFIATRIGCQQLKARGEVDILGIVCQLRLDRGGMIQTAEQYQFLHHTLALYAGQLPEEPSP

[18] = target: T2, Dual specificity protein phosphatase 6
[19] = target: T4, Tyrosine-protein phosphatase non-receptor type 7; assay: redox-active compounds inhibiting HePTP phosphatase – biochemical, fluorescence, mechanism study (AID 2068); assay type: functional
[20] = target: T3, Dual specificity protein phosphatase 3; assay: SAR VHR1 Fluorescent Assay for In Vitro dose response studies. [Related pubchem assays (depositor defined):AID1654, AID1661, AID1878, AID1992, AID2004, AID2070, AID2085]; assay type: functional
[21] = target: T5, Rac GTPase-activating protein 1 (Homo sapiens, UniProt Q9H0H5); assay: blockers of MgcRacGAP-driven Rac1 GTP hydrolysis – biochemical, ADP Hunter fluorescence, primary and confirmatory, confirmation (AID 624330); assay type: functional
T5 sequence (Q9H0H5 whole entry): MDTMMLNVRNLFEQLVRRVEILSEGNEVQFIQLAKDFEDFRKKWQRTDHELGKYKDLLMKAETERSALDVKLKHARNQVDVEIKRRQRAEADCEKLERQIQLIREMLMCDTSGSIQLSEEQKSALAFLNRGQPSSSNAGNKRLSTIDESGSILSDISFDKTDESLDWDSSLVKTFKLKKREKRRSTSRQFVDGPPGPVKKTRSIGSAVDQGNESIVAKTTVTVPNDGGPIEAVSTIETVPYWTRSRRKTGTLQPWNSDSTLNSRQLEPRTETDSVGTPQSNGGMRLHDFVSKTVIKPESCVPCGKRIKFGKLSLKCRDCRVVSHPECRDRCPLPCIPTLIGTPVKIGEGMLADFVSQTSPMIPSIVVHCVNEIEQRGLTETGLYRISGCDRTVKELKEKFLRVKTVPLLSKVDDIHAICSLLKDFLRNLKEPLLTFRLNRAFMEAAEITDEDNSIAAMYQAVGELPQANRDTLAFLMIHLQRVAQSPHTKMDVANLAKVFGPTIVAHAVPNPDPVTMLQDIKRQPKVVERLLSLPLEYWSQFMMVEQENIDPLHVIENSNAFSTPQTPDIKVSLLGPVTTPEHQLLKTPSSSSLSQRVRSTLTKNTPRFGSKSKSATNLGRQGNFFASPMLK

[22] = viability loss in HeLa cells – cytotoxicity control for MgcRacGAP inhibitor project, dose response (AID 624300); assay type: functional
[23] = target: T6, DNA repair protein RAD52 homolog (Homo sapiens, UniProt P43351); assay type: functional, biochemical
T6 sequence (P43351 whole entry): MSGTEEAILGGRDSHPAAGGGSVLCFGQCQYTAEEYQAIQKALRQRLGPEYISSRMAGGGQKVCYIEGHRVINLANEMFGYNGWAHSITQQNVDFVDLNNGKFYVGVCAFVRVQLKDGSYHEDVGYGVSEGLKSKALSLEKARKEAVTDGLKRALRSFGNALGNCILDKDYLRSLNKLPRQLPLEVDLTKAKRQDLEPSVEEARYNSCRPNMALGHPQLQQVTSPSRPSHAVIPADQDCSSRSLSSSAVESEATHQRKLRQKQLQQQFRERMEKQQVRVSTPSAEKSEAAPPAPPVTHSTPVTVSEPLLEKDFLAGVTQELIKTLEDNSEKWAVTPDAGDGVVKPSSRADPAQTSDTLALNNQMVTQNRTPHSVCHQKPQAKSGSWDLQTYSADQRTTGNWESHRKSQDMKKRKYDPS

[24] = protection from phage-mediated lysis, alamar blue read-out – E. coli UTI89, K1F phage, bacterial capsule biogenesis inhibitors (AID 488966); assay type: functional

T3 sequence (P51452 whole entry): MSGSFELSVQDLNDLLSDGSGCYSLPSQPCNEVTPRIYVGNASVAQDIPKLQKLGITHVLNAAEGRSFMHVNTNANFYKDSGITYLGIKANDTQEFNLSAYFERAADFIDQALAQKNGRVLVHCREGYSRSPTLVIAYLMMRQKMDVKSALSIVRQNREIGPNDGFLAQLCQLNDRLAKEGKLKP
Sequence of Intestinal-type alkaline phosphatase (P09923 whole entry): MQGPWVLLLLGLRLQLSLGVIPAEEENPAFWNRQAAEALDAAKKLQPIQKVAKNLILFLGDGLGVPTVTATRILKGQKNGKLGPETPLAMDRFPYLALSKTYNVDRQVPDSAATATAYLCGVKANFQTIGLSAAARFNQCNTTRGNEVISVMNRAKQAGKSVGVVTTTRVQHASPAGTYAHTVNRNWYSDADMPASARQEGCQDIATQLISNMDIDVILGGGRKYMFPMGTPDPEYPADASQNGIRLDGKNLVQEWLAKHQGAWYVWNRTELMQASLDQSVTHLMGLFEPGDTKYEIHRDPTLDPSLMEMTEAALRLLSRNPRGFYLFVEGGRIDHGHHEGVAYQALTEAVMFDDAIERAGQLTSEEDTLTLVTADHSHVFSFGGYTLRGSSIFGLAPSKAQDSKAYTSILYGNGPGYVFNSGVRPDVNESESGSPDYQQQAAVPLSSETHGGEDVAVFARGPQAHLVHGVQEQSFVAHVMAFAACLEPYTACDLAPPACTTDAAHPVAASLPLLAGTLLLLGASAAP
Sequence of Paired box protein Pax-8 (Q06710 whole entry): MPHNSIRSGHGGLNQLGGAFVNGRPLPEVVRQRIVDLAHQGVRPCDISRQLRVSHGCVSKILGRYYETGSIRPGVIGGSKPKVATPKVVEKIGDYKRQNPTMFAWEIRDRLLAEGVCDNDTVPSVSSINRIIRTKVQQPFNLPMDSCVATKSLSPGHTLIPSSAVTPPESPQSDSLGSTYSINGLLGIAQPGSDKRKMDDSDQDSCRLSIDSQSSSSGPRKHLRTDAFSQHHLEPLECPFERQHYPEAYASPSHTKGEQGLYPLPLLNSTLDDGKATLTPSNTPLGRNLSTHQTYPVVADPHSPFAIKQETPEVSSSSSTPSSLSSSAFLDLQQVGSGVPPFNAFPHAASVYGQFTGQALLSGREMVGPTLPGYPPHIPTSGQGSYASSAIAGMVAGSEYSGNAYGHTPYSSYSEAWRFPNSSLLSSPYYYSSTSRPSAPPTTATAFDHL
Sequence of Cystic fibrosis transmembrane conductance regulator/Golgi-associated PDZ and coiled-coil motif-containing protein (P13569 whole entry, other chains not shown): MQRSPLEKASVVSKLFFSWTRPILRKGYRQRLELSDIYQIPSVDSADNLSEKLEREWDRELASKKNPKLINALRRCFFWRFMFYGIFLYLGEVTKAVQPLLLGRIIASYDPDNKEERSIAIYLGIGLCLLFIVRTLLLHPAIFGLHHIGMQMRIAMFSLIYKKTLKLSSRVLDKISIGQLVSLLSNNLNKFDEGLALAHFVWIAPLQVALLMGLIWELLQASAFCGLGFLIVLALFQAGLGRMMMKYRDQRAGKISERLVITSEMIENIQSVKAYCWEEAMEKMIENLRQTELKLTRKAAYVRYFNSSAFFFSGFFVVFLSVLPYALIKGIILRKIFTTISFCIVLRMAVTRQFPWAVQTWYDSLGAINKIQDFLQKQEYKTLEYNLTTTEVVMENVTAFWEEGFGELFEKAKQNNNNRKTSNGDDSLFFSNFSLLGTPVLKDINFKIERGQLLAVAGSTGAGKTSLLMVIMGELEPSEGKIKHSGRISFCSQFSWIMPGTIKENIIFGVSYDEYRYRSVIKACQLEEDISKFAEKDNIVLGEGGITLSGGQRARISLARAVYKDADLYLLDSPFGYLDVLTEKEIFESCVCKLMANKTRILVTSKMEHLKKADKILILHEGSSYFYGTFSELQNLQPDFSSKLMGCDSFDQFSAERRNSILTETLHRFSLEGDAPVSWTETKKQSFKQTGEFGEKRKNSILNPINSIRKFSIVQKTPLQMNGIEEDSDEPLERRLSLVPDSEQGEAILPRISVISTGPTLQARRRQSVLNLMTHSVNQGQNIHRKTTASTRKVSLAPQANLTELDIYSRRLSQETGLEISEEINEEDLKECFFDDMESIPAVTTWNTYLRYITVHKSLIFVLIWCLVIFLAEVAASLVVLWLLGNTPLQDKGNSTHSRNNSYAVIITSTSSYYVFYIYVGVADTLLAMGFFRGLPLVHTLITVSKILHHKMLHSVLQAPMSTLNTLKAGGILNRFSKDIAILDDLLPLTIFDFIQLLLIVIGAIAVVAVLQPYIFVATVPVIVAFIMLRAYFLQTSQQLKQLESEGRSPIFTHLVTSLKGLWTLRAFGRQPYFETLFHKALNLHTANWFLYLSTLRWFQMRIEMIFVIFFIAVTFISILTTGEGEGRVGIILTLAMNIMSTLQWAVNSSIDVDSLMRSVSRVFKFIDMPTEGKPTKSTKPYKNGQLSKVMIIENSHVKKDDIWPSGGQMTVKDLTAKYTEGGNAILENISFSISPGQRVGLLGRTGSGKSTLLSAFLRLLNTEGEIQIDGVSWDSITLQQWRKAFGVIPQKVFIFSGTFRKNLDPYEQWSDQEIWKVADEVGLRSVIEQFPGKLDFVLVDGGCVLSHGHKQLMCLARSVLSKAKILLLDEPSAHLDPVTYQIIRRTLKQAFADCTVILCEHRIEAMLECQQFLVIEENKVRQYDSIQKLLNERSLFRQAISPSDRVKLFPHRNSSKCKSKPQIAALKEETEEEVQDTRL
Sequence of Glyceraldehyde-3-phosphate dehydrogenase (P04406 whole entry): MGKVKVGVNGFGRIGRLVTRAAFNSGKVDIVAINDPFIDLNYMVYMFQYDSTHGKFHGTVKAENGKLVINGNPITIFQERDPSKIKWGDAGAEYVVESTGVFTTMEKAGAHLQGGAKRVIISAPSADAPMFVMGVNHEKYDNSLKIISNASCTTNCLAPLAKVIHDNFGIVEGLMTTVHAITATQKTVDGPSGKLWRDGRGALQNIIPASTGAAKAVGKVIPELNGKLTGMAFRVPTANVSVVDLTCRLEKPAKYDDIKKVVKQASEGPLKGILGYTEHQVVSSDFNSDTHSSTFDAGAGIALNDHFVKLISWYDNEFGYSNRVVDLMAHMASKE
Sequence of Envelope glycoprotein gp160 (Q6QLK5 whole entry, the tested form may be a part): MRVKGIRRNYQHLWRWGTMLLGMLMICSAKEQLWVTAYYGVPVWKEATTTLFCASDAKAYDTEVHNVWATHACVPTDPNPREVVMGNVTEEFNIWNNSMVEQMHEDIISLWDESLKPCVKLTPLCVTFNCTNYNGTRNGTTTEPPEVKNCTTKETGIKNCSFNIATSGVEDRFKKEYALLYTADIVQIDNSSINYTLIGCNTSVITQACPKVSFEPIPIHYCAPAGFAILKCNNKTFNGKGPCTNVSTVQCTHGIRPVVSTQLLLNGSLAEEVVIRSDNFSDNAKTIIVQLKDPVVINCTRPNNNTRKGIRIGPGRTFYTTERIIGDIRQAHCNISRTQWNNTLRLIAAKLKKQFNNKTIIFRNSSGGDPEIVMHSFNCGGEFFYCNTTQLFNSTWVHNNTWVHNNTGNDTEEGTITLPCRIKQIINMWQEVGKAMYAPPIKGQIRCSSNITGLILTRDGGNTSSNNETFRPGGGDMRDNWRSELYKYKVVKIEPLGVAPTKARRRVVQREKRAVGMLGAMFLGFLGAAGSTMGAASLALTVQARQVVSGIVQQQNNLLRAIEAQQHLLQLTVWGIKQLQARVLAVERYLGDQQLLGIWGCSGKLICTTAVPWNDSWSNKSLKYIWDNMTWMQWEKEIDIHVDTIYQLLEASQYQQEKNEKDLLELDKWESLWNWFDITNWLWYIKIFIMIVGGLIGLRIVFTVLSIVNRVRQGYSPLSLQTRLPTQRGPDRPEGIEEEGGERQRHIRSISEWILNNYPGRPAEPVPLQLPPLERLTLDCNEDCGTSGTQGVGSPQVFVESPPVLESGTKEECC
Sequence of Glutathione-S-transferase (Q26513 whole entry): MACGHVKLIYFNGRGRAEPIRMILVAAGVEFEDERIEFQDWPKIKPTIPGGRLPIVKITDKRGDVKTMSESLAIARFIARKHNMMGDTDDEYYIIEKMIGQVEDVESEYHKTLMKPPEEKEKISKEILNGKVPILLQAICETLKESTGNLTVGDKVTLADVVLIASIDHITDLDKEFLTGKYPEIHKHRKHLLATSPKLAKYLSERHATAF
Sequence of Polyadenylate-binding protein 1 (P11940 whole entry, the tested form may be a part): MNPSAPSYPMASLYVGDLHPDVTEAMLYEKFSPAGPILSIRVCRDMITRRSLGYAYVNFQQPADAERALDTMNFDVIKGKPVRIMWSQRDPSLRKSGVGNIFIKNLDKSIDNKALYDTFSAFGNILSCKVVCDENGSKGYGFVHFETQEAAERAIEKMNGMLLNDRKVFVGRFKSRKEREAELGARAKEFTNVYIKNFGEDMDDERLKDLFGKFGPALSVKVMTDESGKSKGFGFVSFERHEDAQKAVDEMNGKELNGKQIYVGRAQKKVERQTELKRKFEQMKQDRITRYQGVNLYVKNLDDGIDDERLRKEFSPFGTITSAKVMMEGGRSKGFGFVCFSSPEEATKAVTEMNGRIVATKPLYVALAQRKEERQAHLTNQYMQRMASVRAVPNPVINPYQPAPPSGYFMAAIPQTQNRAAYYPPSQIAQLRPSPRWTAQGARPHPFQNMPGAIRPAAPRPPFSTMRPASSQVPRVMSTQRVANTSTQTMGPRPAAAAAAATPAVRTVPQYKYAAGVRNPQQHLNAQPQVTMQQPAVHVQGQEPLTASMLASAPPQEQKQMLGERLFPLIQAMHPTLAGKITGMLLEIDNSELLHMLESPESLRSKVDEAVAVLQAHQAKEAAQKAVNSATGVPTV

COc1cc(C=NNC(=O)c2ccccc2O)ccc1OCC(=O)Nc1ccccc1
IC50 [1]: 2.41 µM (active)
IC50 [2]: 52.6 µM (active)

O=S(=O)(Nc1nc2ccccc2nc1Nc1ccc(N2CCOCC2)cc1)c1cc(Cl)ccc1Cl
IC50 [3]: > 99 µM (inactive)
AC50 [4]: 4.38 µM (active)
IC50 [5]: > 100 µM (active)
AC50 (INS1): 5.91 µM (active)

COC(=O)c1ccccc1-c1c2ccc(=N)cc-2oc2cc(N)ccc12
IC50 [6]: 9.91 µM (active)
AC50 (ORF 73): < 0.015 µM (active)
AC50 (Paired box protein Pax-8): 1.41 µM (active)
EC50 (HEK293 [7]): 0.045 µM (active)
CC50 [8]: 5.49 µM (active)
EC50 (Insulin-degrading enzyme [9]): > 54.7 µM (inactive)
AC50 (HeLa): 34 µM (active)
IC50 (HEK293 [10]): > 89.2 µM (inactive)
AC50 [11]: 3.6 µM (active)
EC50 (Insulin-degrading enzyme [12]): > 54.7 µM (inactive)
IC50 [13]: > 100 µM (inactive)

Cc1cc(C)c2nc3s/c(=C\c4ccc(-c5ccccc5C(=O)O)o4)c(=O)n3c2c1
IC50 [14]: 15.6 µM (active)
IC50 [15]: 87.1 µM (active)
IC50 [16]: 0.68 µM (active)
IC50 [17]: 2.4 µM (active)
IC50 [18]: 13.8 µM (active)
IC50 [19]: 0.805 µM (active)
IC50 [20]: 5.82 µM (active)

O=C1c2cccc(NCCNCCO)c2C(=O)c2cccc(NCCNCCO)c21
IC50 [21]: 41.3 µM (active)
CC50 [22]: 23.1 µM (active)
AC50 [23]: < 0.15 µM (active)
IC50 [24]: > 300 µM (active)
